Experimental data taken from patent US11629171B2, “Beta-hairpin peptidomimetics” (POLYPHOR AG, priority 2017, dated 2023).
Converted amounts (≈) assume the structure as drawn. Where a SMILES comes first, the peptide text is derived from it. Bridges are numbered along the chain shown (N, C = ends). Roman numbers before positions name the chains, in order. [ ]: non-standard residue; d: D form. The star is where a group is joined. Tyrosinol = OC[C@H](Cc1ccc(O)cc1)N*; Thr(ol) = C[C@@H](O)[C@H](N)CO; Tle = CC(C)(C)[C@H](N)C(=O)O; NMeV = CN[C@H](C(=O)O)C(C)C; Hiv = CC(C)[C@H](O)C(=O)O; dDab = NCC[C@@H](N)C(=O)O; hSer = N[C@@H](CCO)C(=O)O; Dab = NCC[C@H](N)C(=O)O; Dap = NC[C@H](N)C(=O)O

Legend:
[1] = test system: male ICR mice; test: Tolerability in a mouse model (Maximum Tolerated Dose assay); format: in vivo; settings: 2 × 30 mg/kg s.c. at a 12-hr interval, groups of 3
Experimental: The tolerability of the peptides was tested in a mouse model at Pharmacology Discovery Services Taiwan Ltd, Taipei, Taiwan. The peptides were administered subcutaneously (s.c.) at 30 mg/kg or 40 mg/kg, respectively; twice at a 12-hr interval, for assessment of possible adverse effects in the Maximum Tolerated Dose (MTD) assay in male ICR (Institute of Cancer Research) mice. The peptides were dissolved in 0.9% NaCl at the concentrations either of 6 or 8 mg/mL, respectively, based on the free base molecular weight. The pH values of dosing solutions were adjusted to 6.5-7.6 before s.c. administration. A dosing volume at 5 mL/kg and a concentration of 6 or 8 mg/mL, respectively, was applied. The fresh prepared stock solution were stored at 4° C. during the study. Male ICR mice weighing 23±3 g were provided by BioLasco Taiwan (under Charles River Laboratories Licensee). Animals were acclimated for 3 days prior to use and were confirmed to be in good health. The peptides were administered s.c. at 30 mg/kg or 40 mg/kg, respectively, twice at a 12-hr interval, to groups of 3 ICR male mice and observed for the presence of acute toxic symptoms (mortality, convulsions, tremors, muscle relaxation, sedation, etc.) and autonomic effects (diarrhea, salivation, lacrimation, vasodilation, piloerection, etc.) during the first 30 min. The peptides were administered again at a 12-hr (two total doses) interval, following the first dose. The animals were then observed again for the presence of acute toxic symptoms and autonomic effects during the first 30 min.

[2] = test system: human red blood cells (hRBC); test: Hemolysis; format: cell-based; settings: red cells of human, 1 h, 200
Outline: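 Hemoglobin release from PBS-washed hRBC at 20% (v/v), incubated 1 h at 37° C with peptides at 200 μg/mL, is measured at 540 nm. Values are blank corrected and given as a fraction of Triton X-100 lysis × 100%.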

[3] = test system: Escherichia coli 926415; format: cell-based; settings: 926415
Outline: (§1)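 MIC in μg/mL, read as no visible growth after 18-20 hours at 35° C. Peptides were serially diluted two-fold in MH-II broth plus P-80 (0.002% final, v/v) and inoculated at about 10^6 CFU/mL following the CLSI broth microdilution standard.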

[4] = test system: Escherichia coli ATCC 25922; format: cell-based; settings: ATCC 25922
Outline: as §1

[5] = test system: Klebsiella pneumoniae 968733; format: cell-based; settings: 968733
Outline: as §1

[6] = test system: Klebsiella pneumoniae SSI #3010; format: cell-based; settings: SSI #3010
Outline: as §1

[7] = test system: Enterobacter cloacae 848840; format: cell-based; settings: 848840
Outline: as §1

[8] = test system: Acinetobacter baumannii 872842; format: cell-based; settings: 872842
Outline: as §1

[9] = test system: Acinetobacter baumannii DSM 30008; format: cell-based; settings: DSM 30008
Outline: as §1

[10] = test system: Pseudomonas aeruginosa ATCC 27853; format: cell-based; settings: ATCC 27853
Outline: as §1

SMILES	Mortality and dose [1]	Hemolysis at 200 μg/mL [2]	MIC [3]	MIC [4]	MIC [5]	MIC [6]	MIC [7]	MIC [8]	MIC [9]	MIC [10]
CC(=O)N[C@H](C(=O)N[C@H]1CSSC[C@@H](C(=O)N[C@@H](CO)C(N)=O)NC(=O)[C@H](C(C)C)NC(=O)[C@H](CO)NC(=O)[C@H](Cc2c[nH]c3ccccc23)NC(=O)[C@H](CCO)NC(=O)[C@@H](CCN)NC(=O)[C@H](CCC(=O)N[C@@H](CCN)C(=O)N[C@H](C(=O)N[C@@H](CCN)C(=O)N[C@H]2CCNC(=O)[C@H]([C@@H](C)O)NC(=O)[C@H](CCN)NC(=O)[C@H](CCN)NC(=O)[C@H](CC(C)C)NC(=O)[C@@H](CC(C)C)NC(=O)[C@H](CCN)NC2=O)[C@@H](C)O)NC(=O)[C@H](CCN)NC(=O)[C@H](Cc2ccc(O)cc2)NC1=O)C(C)C [Ex. 41] (I: Ac-VCY[Dab]E[dDab][hSer]WSVCS-NH2 / II: [Dab]T[Dab][Dab][Dab][dL]L[Dab][Dab]T; disulfide I:2-I:11; amide I:5-II:N; lactam II:4-II:C)	0/3 died at 2 × 30 mg/kg	<1%	0.25 µg/mL (≈ 0.103 µM)	0.0625 µg/mL (≈ 0.0258 µM)	0.125 µg/mL (≈ 0.0515 µM)	0.125 µg/mL (≈ 0.0515 µM)	0.25 µg/mL (≈ 0.103 µM)	0.125 µg/mL (≈ 0.0515 µM)	0.0625 µg/mL (≈ 0.0258 µM)	0.25 µg/mL (≈ 0.103 µM)
CN[C@H](C(=O)N[C@H]1CSSC[C@@H](C(=O)N[C@@H](CO)C(=O)O)NC(=O)[C@H](C(C)C)NC(=O)[C@H](CO)NC(=O)[C@H](Cc2c[nH]c3ccccc23)NC(=O)[C@H](CCO)NC(=O)[C@@H](CCN)NC(=O)[C@H](CCC(=O)N[C@@H](CCN)C(=O)N[C@H](C(=O)N[C@@H](CCN)C(=O)N[C@H]2CCNC(=O)[C@H]([C@@H](C)O)NC(=O)[C@H](CCN)NC(=O)[C@H](CCN)NC(=O)[C@H](CC(C)C)NC(=O)[C@@H](CC(C)C)NC(=O)[C@H](CCN)NC2=O)[C@@H](C)O)NC(=O)[C@H](CCN)NC(=O)[C@H](Cc2ccc(O)cc2)NC1=O)C(C)C [Ex. 42] (I: H-[NMeV]CY[Dab]E[dDab][hSer]WSVCS-OH / II: [Dab]T[Dab][Dab][Dab][dL]L[Dab][Dab]T; disulfide I:2-I:11; amide I:5-II:N; lactam II:4-II:C; C-terminus assumed)	0/3 died at 2 × 30 mg/kg	<1%	0.5 µg/mL (≈ 0.208 µM)	0.125 µg/mL (≈ 0.0521 µM)	2 µg/mL (≈ 0.833 µM)	0.25 µg/mL (≈ 0.104 µM)	4 µg/mL (≈ 1.67 µM)	1 µg/mL (≈ 0.417 µM)	0.5 µg/mL (≈ 0.208 µM)	0.25 µg/mL (≈ 0.104 µM)
CN[C@H](C(=O)N[C@H]1CSSC[C@@H](C(=O)N[C@@H](CO)C(N)=O)NC(=O)[C@H](C(C)C)NC(=O)[C@H](CO)NC(=O)[C@H](Cc2c[nH]c3ccccc23)NC(=O)[C@H](CCO)NC(=O)[C@@H](CCN)NC(=O)[C@H](CCC(=O)N[C@@H](CCN)C(=O)N[C@H](C(=O)N[C@@H](CCN)C(=O)N[C@H]2CCNC(=O)[C@H]([C@@H](C)O)NC(=O)[C@H](CCN)NC(=O)[C@H](CCN)NC(=O)[C@H](CC(C)C)NC(=O)[C@@H](CC(C)C)NC(=O)[C@H](CCN)NC2=O)[C@@H](C)O)NC(=O)[C@H](CCN)NC(=O)[C@H](Cc2ccc(O)cc2)NC1=O)C(C)C [Ex. 43] (I: H-[NMeV]CY[Dab]E[dDab][hSer]WSVCS-NH2 / II: [Dab]T[Dab][Dab][Dab][dL]L[Dab][Dab]T; disulfide I:2-I:11; amide I:5-II:N; lactam II:4-II:C)	0/3 died at 2 × 30 mg/kg	<1%	0.5 µg/mL (≈ 0.208 µM)	0.25 µg/mL (≈ 0.104 µM)	2 µg/mL (≈ 0.834 µM)	0.25 µg/mL (≈ 0.104 µM)	2 µg/mL (≈ 0.834 µM)	0.125 µg/mL (≈ 0.0521 µM)	0.5 µg/mL (≈ 0.208 µM)	0.5 µg/mL (≈ 0.208 µM)
CC(C)C[C@@H]1NC(=O)[C@@H](CC(C)C)NC(=O)[C@H](CCN)NC(=O)[C@@H](NC(=O)[C@H](CCN)NC(=O)[C@@H](NC(=O)[C@H](CCN)NC(=O)CC[C@@H]2NC(=O)[C@H](CN)NC(=O)[C@H](Cc3ccc(O)cc3)NC(=O)[C@@H](NC(=O)[C@@H](O)C(C)C)CSSC[C@@H](C(=O)N[C@H](CO)[C@@H](C)O)NC(=O)[C@H](C(C)(C)C)NC(=O)[C@H](CO)NC(=O)[C@H](Cc3c[nH]c4ccccc34)NC(=O)[C@H]([C@@H](C)O)NC(=O)[C@@H](CCN)NC2=O)[C@@H](C)O)CCNC(=O)[C@H]([C@@H](C)O)NC(=O)[C@H](CCN)NC(=O)[C@H](CCN)NC1=O [Ex. 58] (I: H-[Hiv]CY[Dap]E[dDab]TWS[Tle]C[Thr(ol)] / II: [Dab]T[Dab][Dab][Dab][dL]L[Dab][Dab]T; disulfide I:2-I:11; amide I:5-II:N; lactam II:4-II:C)	0/3 died at 2 × 30 mg/kg	1%	0.125 µg/mL (≈ 0.0524 µM)	0.0625 µg/mL (≈ 0.0262 µM)	0.25 µg/mL (≈ 0.105 µM)	0.125 µg/mL (≈ 0.0524 µM)	0.125 µg/mL (≈ 0.0524 µM)	0.0625 µg/mL (≈ 0.0262 µM)	0.0625 µg/mL (≈ 0.0262 µM)	0.25 µg/mL (≈ 0.105 µM)
CC(=O)N[C@H](C(=O)N[C@H]1CSSC[C@@H](C(=O)N[C@@H](Cc2ccc(O)cc2)C(N)=O)NC(=O)[C@H](C(C)C)NC(=O)[C@H](CO)NC(=O)[C@H](Cc2c[nH]c3ccccc23)NC(=O)[C@H](CCO)NC(=O)[C@@H](CCN)NC(=O)[C@H](CCC(=O)N[C@@H](CCN)C(=O)N[C@H](C(=O)N[C@@H](CCN)C(=O)N[C@H]2CCNC(=O)[C@H]([C@@H](C)O)NC(=O)[C@H](CCN)NC(=O)[C@H](CCN)NC(=O)[C@H](CC(C)C)NC(=O)[C@@H](CC(C)C)NC(=O)[C@H](CCN)NC2=O)[C@@H](C)O)NC(=O)[C@H](CCN)NC(=O)[C@H](CO)NC1=O)C(C)C [Ex. 65] (I: Ac-VCS[Dab]E[dDab][hSer]WSVCY-NH2 / II: [Dab]T[Dab][Dab][Dab][dL]L[Dab][Dab]T; disulfide I:2-I:11; amide I:5-II:N; lactam II:4-II:C)	0/3 died at 2 × 30 mg/kg	<1%	0.5 µg/mL (≈ 0.206 µM)	0.125 µg/mL (≈ 0.0515 µM)	0.5 µg/mL (≈ 0.206 µM)	0.25 µg/mL (≈ 0.103 µM)	4 µg/mL (≈ 1.65 µM)	0.25 µg/mL (≈ 0.103 µM)	0.125 µg/mL (≈ 0.0515 µM)	0.125 µg/mL (≈ 0.0515 µM)
CC(C)C[C@@H]1NC(=O)[C@@H](CC(C)C)NC(=O)[C@H](CCN)NC(=O)[C@@H](NC(=O)[C@H](CCN)NC(=O)[C@@H](NC(=O)[C@H](CCN)NC(=O)CC[C@@H]2NC(=O)[C@H](CCN)NC(=O)[C@H](C(C)C)NC(=O)[C@@H](NC(=O)[C@@H](O)C(C)C)CSSC[C@@H](C(=O)N[C@H](CO)Cc3ccc(O)cc3)NC(=O)[C@H](C(C)(C)C)NC(=O)[C@H](CO)NC(=O)[C@H](Cc3c[nH]c4ccccc34)NC(=O)[C@H](CCO)NC(=O)[C@@H](CCN)NC2=O)[C@@H](C)O)CCNC(=O)[C@H]([C@@H](C)O)NC(=O)[C@H](CCN)NC(=O)[C@H](CCN)NC1=O [Ex. 92] (I: H-[Hiv]CV[Dab]E[dDab][hSer]WS[Tle]C-Tyrosinol / II: [Dab]T[Dab][Dab][Dab][dL]L[Dab][Dab]T; disulfide I:2-I:11; amide I:5-II:N; lactam II:4-II:C)	0/3 died at 2 × 30 mg/kg	<1%	0.0625 µg/mL (≈ 0.0261 µM)	0.0625 µg/mL (≈ 0.0261 µM)	0.125 µg/mL (≈ 0.0521 µM)	0.0625 µg/mL (≈ 0.0261 µM)	0.25 µg/mL (≈ 0.104 µM)	0.125 µg/mL (≈ 0.0521 µM)	0.125 µg/mL (≈ 0.0521 µM)	0.125 µg/mL (≈ 0.0521 µM)
